Test results: ChEMBL document CHEMBL1142200, “Efficacy of delayed treatment with ST-246 given orally against systemic orthopoxvirus infections in mice” (Antimicrob Agents Chemother, 2007)
Activity calls are given as the source filed them. The calls are words filed in the database; no cut-off is given here.

Assays:
Ectromelia virus [1] = experiment: Reduction of Ectromelia virus replication in BALB/c mouse spleen at 100 mg/kg, po once daily after 4 days; assay type: functional, organism-based; set-up: dose 100 mg/kg
Ectromelia virus [2] = experiment: Reduction of Ectromelia virus replication in BALB/c mouse spleen at 100 mg/kg, po once daily after 6 days; assay type: functional, organism-based; set-up: dose 100 mg/kg
Mus musculus [3] = experiment: Effect on mortality of BALB/c mouse inoculated with Vaccinia virus WR at 100 mg/kg after 4 hrs of viral infection, po once daily for 14 days relative to control; assay type: functional
[4] = Selectivity index, ratio of CC50 for HFF cells to EC50 for Vaccinia virus WR infected HFF cells; assay type: functional
Ectromelia virus [5] = experiment: Reduction of Ectromelia virus replication in BALB/c mouse lung at 100 mg/kg, po once daily after 6 days; assay type: functional, organism-based; set-up: dose 100 mg/kg
Ectromelia virus [6] = experiment: Reduction of Ectromelia virus replication in BALB/c mouse liver at 100 mg/kg, po once daily after 6 days; assay type: functional, organism-based; set-up: dose 100 mg/kg
Mus musculus [7] = experiment: Effect on mortality of BALB/c mouse inoculated with Cowpox virus BR at 100 mg/kg after 4 hrs of viral infection, po once daily for 10 days relative to control; assay type: functional
Mus musculus [8] = experiment: Effect on mortality of A/NCr mouse inoculated with 4.1 PFU ectromelia virus at 100 mg/kg after 4 hrs of viral infection, po twice daily for 14 days; assay type: functional
Mus musculus [9] = experiment: Effect on mortality of BALB/c mouse inoculated with Cowpox virus BR at 50 mg/kg after 24 hrs of viral infection, po for 9 days; assay type: functional, organism-based; set-up: dose 50 mg/kg
[10] = Cytotoxicity against HFF cells; assay type: cell-based; settings: human
Ectromelia virus [11] = experiment: Reduction of Ectromelia virus replication in BALB/c mouse lung at 100 mg/kg, po once daily after 14 days; assay type: functional, organism-based; set-up: dose 100 mg/kg
Ectromelia virus [12] = experiment: Reduction of Ectromelia virus replication in BALB/c mouse esophagus at 100 mg/kg, po once daily after 4 days; assay type: functional, organism-based; set-up: dose 100 mg/kg
Ectromelia virus [13] = experiment: Reduction of Ectromelia virus replication in BALB/c mouse trachea at 100 mg/kg, po once daily after 4 days; assay type: functional, organism-based; set-up: dose 100 mg/kg
Mus musculus [14] = experiment: Effect on mortality of BALB/c mouse inoculated with Cowpox virus at 10 mg/kg after 24 hrs of viral infection, po once daily for 14 days relative to control; assay type: functional
Mus musculus [15] = experiment: Effect on mortality of A/NCr mouse inoculated with ectromelia virus at 100 mg/kg after 0 hrs of viral infection, po once daily for 10 days relative control; assay type: functional
Mus musculus [16] = experiment: Effect on mortality of BALB/c mouse inoculated with Cowpox virus at 10 mg/kg after 48 hrs of viral infection, po once daily for 14 days relative to control; assay type: functional
Mus musculus [17] = experiment: Effect on mortality of BALB/c mouse inoculated with Cowpox virus at 10 mg/kg after 4 hrs of viral infection, po once daily for 14 days relative to control; assay type: functional
Mus musculus [18] = experiment: Effect on mortality of A/NCr mouse inoculated with 410 PFU ectromelia virus at 100 mg/kg after 24 hrs of viral infection, po twice daily for 14 days; assay type: functional
Mus musculus [19] = experiment: Effect on mortality of A/NCr mouse inoculated with ectromelia virus at 100 mg/kg after 48 hrs of viral infection, po once daily for 10 days relative control; assay type: functional
Ectromelia virus [20] = experiment: Reduction of Ectromelia virus replication in BALB/c mouse trachea at 100 mg/kg, po once daily after 6 days; assay type: functional, organism-based; set-up: dose 100 mg/kg
[21] = Selectivity index, ratio of CC50 for HFF cells to EC50 for Vaccinia virus Copenhagen infected HFF cells; assay type: functional
Mus musculus [22] = experiment: Effect on mortality of BALB/c mouse inoculated with Vaccinia virus WR at 100 mg/kg after 24 hrs of viral infection, po once daily for 5 days relative to control; assay type: functional
Mus musculus [23] = experiment: Effect on mortality of A/NCr mouse inoculated with ectromelia virus at 100 mg/kg after 24 hrs of viral infection, po once daily for 10 days relative control; assay type: functional
Mus musculus [24] = experiment: Effect on mortality of BALB/c mouse inoculated with Cowpox virus at 100 mg/kg after 24 hrs of viral infection, po once daily for 14 days relative to control; assay type: functional
Mus musculus [25] = experiment: Effect on mortality of BALB/c mouse inoculated with Vaccinia virus WR at 100 mg/kg after 4 hrs of viral infection, po once daily for 5 days relative to control; assay type: functional
Mus musculus [26] = experiment: Effect on mortality of BALB/c mouse inoculated with Cowpox virus BR at 100 mg/kg after 24 hrs of viral infection, po once daily for 7 days relative to control; assay type: functional
[27] = Selectivity index, ratio of CC50 for HFF cells to EC50 for Cowpox virus Brighton infected HFF cells; assay type: functional
Ectromelia virus [28] = experiment: Reduction of Ectromelia virus replication in BALB/c mouse liver at 100 mg/kg, po once daily after 14 days; assay type: functional, organism-based; set-up: dose 100 mg/kg
Mus musculus [29] = experiment: Effect on mortality of BALB/c mouse inoculated with Vaccinia virus WR at 100 mg/kg after 4 hrs of viral infection, po once daily for 10 days relative to control; assay type: functional
Vaccinia virus [30] = experiment: Reduction of Vaccinia virus WR replication in BALB/c mouse liver at 50 mg/kg after 24 hrs of viral infection, po for 9 days; assay type: functional, organism-based; set-up: dose 50 mg/kg; settings: Orthopoxvirus vaccinia
Mus musculus [31] = experiment: Effect on mortality of BALB/c mouse inoculated with Vaccinia virus WR at 100 mg/kg after 24 hrs of viral infection, po once daily for 7 days relative to control; assay type: functional
Cowpox virus [32] = experiment: Reduction of Cowpox virus BR replication in BALB/c mouse spleen at 50 mg/kg after 24 hrs of viral infection, po for 9 days; assay type: functional, organism-based; set-up: dose 50 mg/kg
Mus musculus [33] = experiment: Effect on mortality of BALB/c mouse inoculated with Cowpox virus BR at 100 mg/kg after 24 hrs of viral infection, po once daily for 10 days relative to control; assay type: functional
Cowpox virus [34] = experiment: Reduction of Cowpox virus BR replication in BALB/c mouse lung at 50 mg/kg after 24 hrs of viral infection, po for 9 days; assay type: functional, organism-based; set-up: dose 50 mg/kg
Ectromelia virus [35] = experiment: Reduction of Ectromelia virus replication in BALB/c mouse trachea at 100 mg/kg, po once daily after 8 days; assay type: functional, organism-based; set-up: dose 100 mg/kg
Mus musculus [36] = experiment: Effect on mortality of BALB/c mouse inoculated with Cowpox virus at 30 mg/kg after 24 hrs of viral infection, po once daily for 14 days relative to control; assay type: functional
Ectromelia virus [37] = experiment: Reduction of Ectromelia virus replication in BALB/c mouse esophagus at 100 mg/kg, po once daily after 6 days; assay type: functional, organism-based; set-up: dose 100 mg/kg
Ectromelia virus [38] = experiment: Reduction of Ectromelia virus replication in BALB/c mouse esophagus at 100 mg/kg, po once daily after 14 days; assay type: functional, organism-based; set-up: dose 100 mg/kg
Ectromelia virus [39] = experiment: Reduction of Ectromelia virus replication in BALB/c mouse trachea at 100 mg/kg, po once daily after 14 days; assay type: functional, organism-based; set-up: dose 100 mg/kg
Ectromelia virus [40] = experiment: Reduction of Ectromelia virus replication in BALB/c mouse nasal wash at 100 mg/kg, po once daily after 8 days; assay type: functional, organism-based; set-up: dose 100 mg/kg
Vaccinia virus [41] = experiment: Reduction of Vaccinia virus WR replication in BALB/c mouse kidney at 50 mg/kg after 24 hrs of viral infection, po for 9 days; assay type: functional, organism-based; set-up: dose 50 mg/kg; settings: Orthopoxvirus vaccinia
Mus musculus [42] = experiment: Effect on mortality of BALB/c mouse inoculated with Cowpox virus BR at 100 mg/kg after 4 hrs of viral infection, po once daily for 5 days relative to control; assay type: functional

Structure (SMILES): O=C(NN1C(=O)[C@@H]2[C@@H]3C=C[C@@H]([C@H]4C[C@@H]34)[C@@H]2C1=O)c1ccc(C(F)(F)F)cc1 [TECOVIRIMAT]
- Activity (Ectromelia virus [1]): Active
- Activity (Ectromelia virus [2]): Active
- Activity (Mus musculus [3]): 20%
- Ratio CC50/EC50 [4]: >1000
- Activity (Ectromelia virus [5]): Active
- Activity (Ectromelia virus [6]): Active
- Activity (Mus musculus [7]): 27%
- Activity (Mus musculus [8]): 0%
- Activity (Mus musculus [9]): Active
- CC50 [10]: > 100 µM
- Activity (Ectromelia virus [11]): Active
- Activity (Ectromelia virus [12]): Active
- Activity (Ectromelia virus [13]): Active
- Activity (Mus musculus [14]): 73%
- Activity (Mus musculus [15]): 0%
- Activity (Mus musculus [16]): 13%
- Activity (Mus musculus [17]): 92%
- Activity (Mus musculus [18]): 0%
- Activity (Mus musculus [19]): 0%
- Activity (Ectromelia virus [20]): Active
- Ratio CC50/EC50 [21]: >2000
- Activity (Mus musculus [22]): 7%
- Activity (Mus musculus [23]): 0%
- Activity (Mus musculus [24]): 27%
- Activity (Mus musculus [25]): 13%
- Activity (Mus musculus [26]): 40%
- Ratio CC50/EC50 [27]: >208
- Activity (Ectromelia virus [28]): Active
- Activity (Mus musculus [29]): 33%
- Activity (Vaccinia virus [30]): Active
- Activity (Mus musculus [31]): 7%
- Activity (Cowpox virus [32]): Active
- Activity (Mus musculus [33]): 40%
- Activity (Cowpox virus [34]): Active
- Activity (Ectromelia virus [35]): Active
- Activity (Mus musculus [36]): 40%
- Activity (Ectromelia virus [37]): Active
- Activity (Ectromelia virus [38]): Active
- Activity (Ectromelia virus [39]): Active
- Activity (Ectromelia virus [40]): inactive
- Activity (Vaccinia virus [41]): Active
- Activity (Mus musculus [42]): 87%
